Measurements from US20230313318A1, “MICR[…] METHOD OF USE THEREOF” (priority 2022, published 2023).

Tested on: D. immitis GA III (susceptible isolate)
Design: species or system Dirofilaria immitis
Settings: in vivo

Milbemycin oxime [MBO]
Number of GA III Worms: 0
Percentage of GA III Worms (po): 0%
